Assay results: patent US10681909B2, “Herbicidal triazoles” (FMC Corporation, priority 2014, dated 2020)

Legend:
kochia = experiment: Test A preemergence; assay type: in vivo, Kochia scoparia; settings: 0 to 100 scale (0 no effect, 100 complete control)
Source text: (§1) Seeds of plant species selected from barnyardgrass (Echinochloa crus-galli), crabgrass, large (large crabgrass, Digitaria sanguinalis), kochia (Kochia scoparia), ragweed (common ragweed, Ambrosia elatior), foxtail, giant (giant foxtail, Setaria faberii), morningglory (Ipomoea spp.), pigweed (Amaranthus retroflexus), velvetleaf (Abutilon theophrasti), ryegrass, Italian (Italian ryegrass, Lolium multiflorum), wheat (Triticum aestivum), and corn (Zea mays) were planted into a blend of loam soil and sand and treated preemergence with a directed soil spray using test chemicals formulated in a non-phytotoxic solvent mixture which included a surfactant.
(§2) At the same time, plants selected from these crop and weed species and also blackgrass (Alopecurus myosuroides), and galium (catchweed bedstraw, Galium aparine), were planted in pots containing the same blend of loam soil and sand and treated with postemergence applications of test chemicals formulated in the same manner. Plants ranged in height from 2 to 10 cm and were in the one- to two-leaf stage for the postemergence treatment. Treated plants and untreated controls were maintained in a greenhouse for approximately 10 d, after which time all treated plants were compared to untreated controls and visually evaluated for injury. Plant response ratings, summarized in Table A, are based on a 0 to 100 scale where 0 is no effect and 100 is complete control. A dash (-) response means no test result.

ragweed = experiment: Test A postemergence; assay type: in vivo, Ambrosia elatior; settings: 0 to 100 scale (0 no effect, 100 complete control), approx. 10 d
Source text: as §1, §2

johnsongrass = experiment: Test C preemergence; assay type: in vivo, Sorghum halepense; settings: for Plant response rating (scale of 0 to 100 where 0 is no effect and 100 is complete control): Johnsongrass, preemergence; for Johnsongrass plant response rating (0 to 100): Preemergence, visual rating after 13 to 15 d
Source text: (§3) Seeds of plant species selected from blackgrass (Alopecurus myosuroides), ryegrass, Italian (Italian ryegrass, Lolium multiflorum), wheat (winter wheat, Triticum aestivum), galium (catchweed bedstraw, Galium aparine), corn (Zea mays), crabgrass, large (large crabgrass, Digitaria sanguinalis), foxtail, giant, (giant foxtail, Setaria faberii), johnsongrass (Sorghum halepense), lambsquarters (Chenopodium album), morningglory (Ipomoea coccinea), nutsedge, yellow (yellow nutsedge, Cyperus esculentus), pigweed (Amaranthus retroflexus), ragweed (common ragweed, Ambrosia elatior), soybean (Glycine max), barnyardgrass (Echinochloa crus-galli), oilseed rape (Brassica napus), waterhemp (common waterhemp, Amaranthus rudis), and velvetleaf (Abutilon theophrasti) were planted into a blend of loam soil and sand and treated preemergence with test chemicals formulated in a non-phytotoxic solvent mixture which included a surfactant. At the same time, plants selected from these crop and weed species and also chickweed (common chickweed, Stellaria media), oat, wild (wild oat, Avena fatua), and kochia (Kochia scoparia), were planted in pots containing Sunshine Redi-Earth® planting medium comprising spaghnum peat moss, vermiculite, starter nutrients and dolomitic limestone and treated with postemergence applications of test chemicals formulated in the same manner. Plants ranged in height from 2 to 18 cm (1- to 4-leaf stage) for postemergence treatments. […] A dash (-) response means no test result.

barnyardgrass = experiment: Test C preemergence; assay type: in vivo, Echinochloa crus-galli; settings: for Plant response rating (scale of 0 to 100 where 0 is no effect and 100 is complete control): Barnyardgrass, preemergence; for Barnyardgrass plant response rating (0 to 100): Preemergence, visual rating after 13 to 15 d
Source text: as §3

oilseed rape = experiment: Test C preemergence; assay type: in vivo, Brassica napus; settings: for Plant response rating (scale of 0 to 100 where 0 is no effect and 100 is complete control): Oilseed Rape, preemergence; for Oilseed Rape plant response rating (0 to 100): Preemergence, visual rating after 13 to 15 d
Source text: as §3

| SMILES | Plant response rating, Kochia (kochia; 125 g ai/ha) | Plant response rating, Kochia (kochia; 500 g ai/ha, approx. 10 d) | Plant response rating, Ragweed (ragweed; 125 g ai/ha) | Plant response rating, Ragweed (ragweed; 500 g ai/ha) | Plant response rating (scale of 0 to 100 where 0 is no effect and 100 is complete control) (johnsongrass; 125 g ai/ha) | Plant response rating (scale of 0 to 100 where 0 is no effect and 100 is complete control) (johnsongrass; 250 g ai/ha) | Johnsongrass plant response rating (0 to 100) (johnsongrass; 31 g ai/ha) | Johnsongrass plant response rating (0 to 100) (johnsongrass; 62 g ai/ha) | Plant response rating (scale of 0 to 100 where 0 is no effect and 100 is complete control) (barnyardgrass; 125 g ai/ha) | Plant response rating (scale of 0 to 100 where 0 is no effect and 100 is complete control) (barnyardgrass; 250 g ai/ha) | Barnyardgrass plant response rating (0 to 100) (barnyardgrass; 31 g ai/ha) | Barnyardgrass plant response rating (0 to 100) (barnyardgrass; 62 g ai/ha) | Plant response rating (scale of 0 to 100 where 0 is no effect and 100 is complete control) (oilseed rape; 125 g ai/ha) | Plant response rating (scale of 0 to 100 where 0 is no effect and 100 is complete control) (oilseed rape; 250 g ai/ha) | Oilseed Rape plant response rating (0 to 100) (oilseed rape; 31 g ai/ha) | Oilseed Rape plant response rating (0 to 100) (oilseed rape; 62 g ai/ha) | Plant response rating, Kochia (kochia; 31 g ai/ha) | Plant response rating, Ragweed (ragweed; 31 g ai/ha) |
| --- | --- | --- | --- | --- | --- | --- | --- | --- | --- | --- | --- | --- | --- | --- | --- | --- | --- | --- |
| COc1nc(-c2ccccc2)nn1Cc1ccnc(C(F)(F)F)c1 [Compound 32] | 100 | 100 | 30 | 70 | 30 | 60 | 0 | 0 | 10 | 75 | 0 | 5 | 10 | 85 | 5 | 20 |  |  |
| CCCc1nc(-c2ccc(F)cc2)nn1Cc1ccnc(C(F)(F)F)c1 [Compound 6, 4-[[3-(4-fluorophenyl)-5-propyl-1H-1,2,4-triazol-1-yl]methyl]-2-(trifluoromethyl)pyridine] |  |  |  |  | 85 | 100 | 60 | 75 | 95 | 98 | 50 | 75 | 100 | 100 | 70 | 100 |  |  |
| COc1nc(-c2ccc(C(F)(F)F)cc2)nn1Cc1ccnc(C(F)(F)F)c1 [Compound 25] | 80 |  | 30 |  |  |  |  |  |  |  |  |  |  |  |  |  | 20 | 20 |
| COc1nc(-c2ccc(F)cc2)nn1Cc1ccnc(C(F)(F)F)c1 [Compound 9, 4-[[3-(4-fluorophenyl)-5-methoxy-1H-1,2,4-triazol-1-yl]methyl]-2-(trifluoromethyl)pyridine] |  |  |  |  | 65 | 80 | 5 | 20 | 70 | 85 | 5 | 35 | 95 | 100 | 0 | 60 |  |  |
| CCCOc1nc(-c2ccccc2)nn1Cc1ccnc(C(F)(F)F)c1 [Compound 33] | 60 | 90 | 30 | 50 |  |  |  |  |  |  |  |  |  |  |  |  |  |  |
| CCOc1nc(-c2ccc(Cl)cc2)nn1Cc1ccnc(C(F)(F)F)c1 [Compound 26] | 90 |  | 50 |  |  |  |  |  |  |  |  |  |  |  |  |  | 60 | 30 |
